Legend:
[1] = molecular target: T1, Peroxisome proliferator-activated receptor alpha (Mus musculus, UniProt P23204); experiment: In vitro transcriptional activation of peroxisome proliferator activated alpha-receptor (PPAR) expressed in CV-1 cells; Inactive; type: functional, cell-based
T1 sequence (P23204 whole entry): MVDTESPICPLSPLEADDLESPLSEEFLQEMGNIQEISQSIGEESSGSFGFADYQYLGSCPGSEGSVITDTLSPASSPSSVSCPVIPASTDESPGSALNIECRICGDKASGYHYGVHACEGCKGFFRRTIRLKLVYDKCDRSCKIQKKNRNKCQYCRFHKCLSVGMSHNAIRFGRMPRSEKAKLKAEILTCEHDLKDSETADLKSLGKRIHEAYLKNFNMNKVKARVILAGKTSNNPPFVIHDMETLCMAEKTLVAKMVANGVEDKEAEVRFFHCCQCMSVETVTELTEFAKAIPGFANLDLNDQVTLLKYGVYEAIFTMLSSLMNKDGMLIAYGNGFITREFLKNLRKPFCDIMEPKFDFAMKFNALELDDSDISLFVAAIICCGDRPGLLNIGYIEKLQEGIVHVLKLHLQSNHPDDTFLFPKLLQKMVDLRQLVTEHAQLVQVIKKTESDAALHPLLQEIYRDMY

Mus musculus = organism: Mus musculus; experiment: Minimum effective dose required for significant reduction in blood glucose in ob/ob mice; type: functional
[2] = molecular target: T2, Peroxisome proliferator-activated receptor gamma (Mus musculus, UniProt P37238)
T2 sequence (P37238 whole entry): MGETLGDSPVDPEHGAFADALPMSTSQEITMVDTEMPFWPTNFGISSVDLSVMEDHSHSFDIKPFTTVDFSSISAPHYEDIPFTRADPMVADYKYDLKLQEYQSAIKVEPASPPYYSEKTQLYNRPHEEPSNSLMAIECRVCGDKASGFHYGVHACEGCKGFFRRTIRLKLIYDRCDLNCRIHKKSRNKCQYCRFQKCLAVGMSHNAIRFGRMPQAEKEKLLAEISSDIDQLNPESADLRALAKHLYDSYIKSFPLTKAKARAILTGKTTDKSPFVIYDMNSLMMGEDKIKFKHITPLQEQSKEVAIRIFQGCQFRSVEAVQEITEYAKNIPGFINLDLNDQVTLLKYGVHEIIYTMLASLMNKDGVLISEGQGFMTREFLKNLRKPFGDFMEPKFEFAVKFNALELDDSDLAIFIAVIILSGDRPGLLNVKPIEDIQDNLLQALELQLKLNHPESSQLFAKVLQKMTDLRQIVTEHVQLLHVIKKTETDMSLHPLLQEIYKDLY
Description: In vitro transcriptional activation of Peroxisome proliferator activated receptor gamma (PPAR) expressed in CV-1 cells

[3] = molecular target: T3, Peroxisome proliferator-activated receptor delta (Mus musculus, UniProt P35396); settings: cv-1
T3 sequence (P35396 whole entry): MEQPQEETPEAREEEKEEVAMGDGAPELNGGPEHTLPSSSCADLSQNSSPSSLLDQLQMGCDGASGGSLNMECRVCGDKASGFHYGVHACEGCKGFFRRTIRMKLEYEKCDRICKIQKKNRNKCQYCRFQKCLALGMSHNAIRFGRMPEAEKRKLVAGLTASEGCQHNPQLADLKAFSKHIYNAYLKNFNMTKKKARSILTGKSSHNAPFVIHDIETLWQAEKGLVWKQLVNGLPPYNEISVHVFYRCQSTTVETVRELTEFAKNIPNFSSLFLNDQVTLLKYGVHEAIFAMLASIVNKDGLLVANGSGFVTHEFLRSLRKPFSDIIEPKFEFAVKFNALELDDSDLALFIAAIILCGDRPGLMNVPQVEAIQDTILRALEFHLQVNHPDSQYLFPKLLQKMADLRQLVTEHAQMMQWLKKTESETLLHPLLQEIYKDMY

[4] = molecular target: T1, Peroxisome proliferator-activated receptor alpha; experiment: In vitro transcriptional activation of peroxisome proliferator activated alpha-receptor (PPAR) expressed in CV-1 cells; type: functional, cell-based

Row | EC50 [1] | EC50 [2] [µM] | EC50 [3] | EC50 [4] [µM] | Compound | MED (Mus musculus) [µM/kg]
1 | Not Active | – | – | – | CN(CCOc1ccc(CC2SC(=O)NC2=O)cc1)c1ccccn1 (configuration not stated) [ROSIGLITAZONE] | 3
2 | Not Active | 1 | Not Active | – | CN(CCCOc1ccc(CC2SC(=O)NC2=O)cc1)c1nc2ccccc2o1 (configuration not stated) | 300
3 | Not Active | 13 | Not Active | – | O=C1NC(=O)C(Cc2ccc3c(c2)CC[C@H](Cc2ccccc2)O3)S1 (some centres not stated) [ENGLITAZONE] | –
4 | Not Active | 3 | Not Active | – | CC1(COc2ccc(CC3SC(=O)NC3=O)cc2)CCCCC1 (configuration not stated) [CIGLITAZONE] | 3000
5 | – | 600 | Not Active | 51 | CC(C)(Oc1ccc(Cl)cc1)C(=O)O [CLOFIBRIC ACID] | –
6 | – | 110 | Not Active | 80 | O=C(O)CCC(=O)c1ccc(Oc2ccc(Cl)cc2)cc1 | –
7 | Not Active | – | Not Active | – | CCc1ccc(CCOc2ccc(CC3SC(=O)NC3=O)cc2)nc1 (configuration not stated) [PIOGLITAZONE] | 300
8 | Not Active | – | Not Active | – | CN(CCOc1ccc(CC2SC(=O)NC2=O)cc1)c1nc2ccccc2o1 (configuration not stated) [BRL-48482] | 3
9 | Not Active | 10 | Not Active | – | CN(CCOc1ccc(C2SC(=O)NC2=O)cc1)c1nc2ccccc2o1 (configuration not stated) | >1000

Row | Compound | EC50 [1] | EC50 [2] [µM] | EC50 [3] | EC50 [4] [µM] | MED (Mus musculus) [µM/kg]
10 | CN(CCOc1ccc(/C=C2\SC(=O)NC2=O)cc1)c1ccccn1 | Not Active | 0.19 | Not Active | – | 300
11 | CN(CCOc1ccc(/C=C2\SC(=O)NC2=O)cc1)c1nc2ccccc2o1 | Not Active | 0.14 | Not Active | – | 300

— ChEMBL document CHEMBL1129472, “The structure-activity relationship between peroxisome proliferator-activated receptor gamma agonism and the antihyperglycemic activity of thiazolidinediones” (J Med Chem, 1996)
